The values that follow come from paper PMC9965125, “New NSAID Conjugates as Potent and Selective COX-2 Inhibitors: Synthesis, Molecular Modeling and Biological Investigation” (Molecules, 2023).

By IC50 is commonly meant the concentration that inhibits the measured activity by half.

Several values for one entry are separate records, joined by “and”; a condition that tells them apart may be missing. Equal values may be shown once.

In data set [1] the test system is acetic acid-induced abdominal writhing. The data set can be described thus: acetic acid-induced abdominal writhing assay (peripheral analgesic). The format is in vivo, mice. The note with it: for % Inhibition/Protection / Writing Reflex ± SE: 10 mg/kg indomethacin mol equivalent i.p.; for Potency: % inhibition/protection compared to indomethacin; for Writing Reflex ± SE: number of writhing counted for 30 min. (In general: Writhing tests count abdominal constrictions after an irritant is injected.)

Data set [2] concerns the target T1, COX-2 (Homo sapiens, UniProt P35354).
T1 construct: purchased BioVision Incorporated K547-100 and K548-100
T1 sequence (P35354 18-604): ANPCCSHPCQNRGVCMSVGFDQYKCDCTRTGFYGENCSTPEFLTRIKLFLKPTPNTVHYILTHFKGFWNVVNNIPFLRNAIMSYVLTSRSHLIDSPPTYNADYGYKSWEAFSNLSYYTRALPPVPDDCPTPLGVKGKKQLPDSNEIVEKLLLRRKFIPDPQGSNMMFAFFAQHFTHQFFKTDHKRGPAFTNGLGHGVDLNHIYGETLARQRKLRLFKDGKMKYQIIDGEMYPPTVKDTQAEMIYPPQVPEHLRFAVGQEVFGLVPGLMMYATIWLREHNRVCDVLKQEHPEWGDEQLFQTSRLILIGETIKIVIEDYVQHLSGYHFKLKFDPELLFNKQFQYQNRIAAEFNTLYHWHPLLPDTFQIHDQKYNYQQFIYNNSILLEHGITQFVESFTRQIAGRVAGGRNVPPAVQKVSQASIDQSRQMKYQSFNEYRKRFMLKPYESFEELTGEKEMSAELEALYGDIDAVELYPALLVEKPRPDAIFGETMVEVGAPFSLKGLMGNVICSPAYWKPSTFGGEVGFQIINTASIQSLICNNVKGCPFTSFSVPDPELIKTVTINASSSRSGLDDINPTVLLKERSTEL
In words: COX-2 inhibitor screening assay (fluorometric kit). It counts as biochemical. The note with it: for SI: SI = IC50 (COX-1)/IC50 (COX-2); for IC50: read-out: IC50, μM ± SD COX-2. On the procedure:
the manufactor’s instructions.
The COX-1/2 inhibitor screening protocols can be summarized in following:
The test compound is dissolved in DMSO. Dilute to 10X the desired test concentration with COX-1 Assay Buffer before use. Add 10 μl diluted test inhibitor or Assay Buffer into assigned wells as sample screen [S] or Enzyme Control [EC] (no inhibitor) respectively. Add 2 μl of SC560 (in case […]
the wells as Inhibitor Control [IC].
Dilute COX Cofactor 200 times by adding 2 μl of COX Cofactor to 398 μl of COX Assay Buffer just before use. Mix well. Prepare Arachidonic Acid solution by adding 5 μl of supplied Arachidonic Acid to 5 μl of NaOH just before use. Vortex briefly to mix. Dilute Arachidonic Acid/NaOH solution 10 times by adding 90 μl ddH2O, vortex briefly to mix. Make as much as […]
For each well, prepare 80 μl of master mix as follows:
Diluted COX Cofactor 2 μl
Add 80 μl of Reaction Mix into each well. Use a multi -channel pipette to add 10 μl of diluted Arachidonic Acid/NaOH solution into each well to initiate all the reactions at the same time.
(T1 and T2) in the linear range of the plot and obtain the corresponding fluorescence values (RFU 1 […]
Calculate the slope for all samples, including Enzyme Control (EC), by dividing the net ΔRFU (RFU2 – RFU1) values by the time ΔT (T2 – T1). Calculate % Relative Inhibition as follows:
% Relative Inhibition = Slope of EC − Slope of S X 100

Data set [3] concerns gastric mucosa. The settings on record: both, albino, mouse, in vivo, 3 days; for % Incidence of Ulcer Divided by 10 / Average Severity of Ulcer / Average of Ulcer Number / Number of Animals with Ulcer: po, 10 mg/kg. On the procedure:
The ulcerogenic liability was determined in albino mice obeying the standard method.
Animals of either sex (pregnant females were excluded) weighing 20 –25 g were divided into 8 groups of 6 animals each. The animals fasted 18 h before drug administration.
80 administered orally for three successive days to fasted animals at a dose of 10 mg kg-1 (animal […]
The control group animals were given water only with few drops of Tween 80. The animals were sacrificed by cervical dislocation and the stomach was removed, opened along the greater curvature and rinsed with saline. The gastric mucosa was examined with a magnifying lens (10x) for the presence of lesions and ero sions. The ulcer index was calculated (Table 4) and the degree of ulcerogenic effect was expressed in terms of.
1. The percentage incidence of ulcers divided by 10.
2. Average number of ulcers per stomach.
3. Average severity of ulcers.
The ulcer index is the value that resulted from the sum of the above three values. […]

Data set [4] relates to carrageenan induced paw edema. The data set can be described thus: carrageenan-induced rat paw edema. The note with it: for % Inhibition of Edema ± Standard Error / Mean Edema Thickness: 10 mg/kg indomethacin mol equivalent i.p.; for Mean Edema Thickness: ± standard error. The format is in vivo. (In general: The carrageenan paw model is a standard test of acute inflammation.)

Regarding `C#CCOC(=O)C(C)c1ccc(CC(C)C)cc1` (stereo not shown) [Compound 3, Prop-2-yn-1-yl 2-(4-isobutylphenyl) Propanoate], in data set [1], the “% Inhibition/Protection” value was 71.8%, the Potency is reported as 100.0% and the “Writing Reflex ± SE” value is 11.3 ± 0.9. For the same compound, in data set [2], the SI is 2.262 and the 50% inhibitory concentration (IC50) was determined as 8.6 ± 0.24 µM. In addition, in data set [3], the “Ulcer Index” value is on record as 4.33, the “% Incidence of Ulcer Divided by 10” value was determined as 3.33, the “Average Severity of Ulcer” value was determined as 0.67 and the “Average of Ulcer Number” value is recorded as 0.33. In addition, in data set [3], the “Number of Animals with Ulcer” value is 2/6. In data set [4] (1 h), the “% Inhibition of Edema ± Standard Error” value turned out to be 15.8 ± 1.9% and the “Mean Edema Thickness” value is listed as 0.727 ± 0.05 mm. In data set [4] (2 h), the “% Inhibition of Edema ± Standard Error” value is 17.4 ± 0.9% and the “Mean Edema Thickness” value came out at 0.589 ± 0.01 mm. For the same compound, the “% Inhibition of Edema ± Standard Error” value in data set [4] (3 h, 10 mg/kg) is 85.8% and 85.8 ± 1.1%. The “Mean Edema Thickness” value in data set [4] (3 h) is recorded as 0.103 ± 0.04 mm. Also, in data set [4] (4 h), the “% Inhibition of Edema ± Standard Error” value worked out at 33.7 ± 1.2% and the “Mean Edema Thickness” value is 0.473 ± 0.03 mm. Besides, in data set [4] (24 h), the “% Inhibition of Edema ± Standard Error” value is listed as 0.00 ± 0.3% and the “Mean Edema Thickness” value was 0.920 ± 0.02 mm. The “% Potency” value in data set [4] (% inhibition of edema thickness relative to indomethacin at 3 h) was 105.8%.
In the case of `Cc1ccc(-n2cc(COC(=O)C(C)c3ccc(CC(C)C)cc3)nn2)cc1` (stereo not shown) [Compound 5d, (1-(p-Tolyl)-1H-1,2,3-triazol-4-yl)methyl 2-(4-isobutylphenyl)propanoate], in data set [1], the “% Inhibition/Protection” value worked out at 82.5%, the Potency is given as 114.9% and the “Writing Reflex ± SE” value came to 7.0 ± 1.3. Further, in data set [2], the SI is on record as 2.158 and the IC50 worked out at 4.47 ± 0.13 µM. In addition, in data set [3], the “Ulcer Index” value came out at 0, the “% Incidence of Ulcer Divided by 10” value came to 0, the “Average Severity of Ulcer” value turned out to be 0 and the “Average of Ulcer Number” value came out at 0. The “Number of Animals with Ulcer” value in data set [3] worked out at 0. For the same compound, in data set [4] (24 h), the “% Inhibition of Edema ± Standard Error” value worked out at 0.00 ± 1.7%.
Turning to `COc1ccccc1-n1cc(COC(=O)C(C)c2ccc(CC(C)C)cc2)nn1` (stereo not shown) [Compound 5e, (1-(2-Methoxyphenyl)-1H-1,2,3-triazol-4-yl)methyl 2-(4-isobutylphenyl)propanoate], in data set [1], the “% Inhibition/Protection” value came to 63.3%, the Potency turned out to be 88.2% and the “Writing Reflex ± SE” value stood at 14.7 ± 1.6. Besides, in data set [2], the SI is recorded as 0.387 and the IC50 was 14 ± 0.4 µM. Besides, in data set [3], the “Ulcer Index” value was 0, the “% Incidence of Ulcer Divided by 10” value came to 0, the “Average Severity of Ulcer” value is 0 and the “Average of Ulcer Number” value is given as 0. Besides, the “Number of Animals with Ulcer” value in data set [3] came to 0. Further, the “% Inhibition of Edema ± Standard Error” value in data set [4] (4 h) amounted to 7.4 ± 1.8%.
